Assay results taken from patent publication US11117900B2 (Vertex Pharmaceuticals Incorporated, priority 2012, dated 2021).

System: HCT116 colorectal cancer cells
Experiment: Cisplatin sensitization assay (96 h MTS cell viability);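 also: compound concentration needed to lower the IC50 of Cisplatin alone by a set fold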
Format: cell-based
Settings: Cisplatin sensitization value
Outline: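 HCT116 cells were dosed simultaneously with compound and cisplatin as a full matrix of 2-fold serial dilutions from 10 μM top final concentration. Incubation was 96 h at 37° C., 5% CO2, followed by 1 h with MTS reagent for the viability read-out. Sensitization values were binned into +++, ++ and + categories.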

| Compound | Cisplatin Sensitization Assay |
| --- | --- |
| Nc1nn2cc(F)cnc2c1C(=O)Nc1cncc(F)c1N1CCN(C(=O)C2CC2)CC1 [I-N-276, 2-amino-N-(4-(4-(cyclopropanecarbonyl)piperazin-1-yl)-5-fluoropyridin-3-yl)-6-fluoropyrazolo[1,5-a]pyrimidine-3-carboxamide] | +++ (Compounds with a Cisplatin sensitization value of <0.02 μM are marked with “+++.”) |
| Nc1nn2cc(F)cnc2c1C(=O)Nc1cncc(F)c1N1CCN2C(=O)CCCC2C1 (stereo not drawn) [I-N-277, 2-amino-6-fluoro-N-(5-fluoro-4-(6-oxohexahydro-1H-pyrido[1,2-a]pyrazin-2(6H)-yl)pyridin-3-yl)pyrazolo[1,5-a]pyrimidine-3-carboxamide] | +++ (Compounds with a Cisplatin sensitization value of <0.02 μM are marked with “+++.”) |
| Nc1nn2cc(F)cnc2c1C(=O)Nc1cncc(F)c1N1CCN(C(=O)C2COC2)CC1 [I-N-278, 2-amino-6-fluoro-N-(5-fluoro-4-(4-(oxetane-3-carbonyl)piperazin-1-yl)pyridin-3-yl)pyrazolo[1,5-a]pyrimidine-3-carboxamide] | +++ (Compounds with a Cisplatin sensitization value of <0.02 μM are marked with “+++.”) |
| Nc1nn2cc(F)cnc2c1C(=O)Nc1cncc(F)c1N1CCN2C(=O)CCC[C@@H]2C1 [I-N-280, (R)-2-amino-6-fluoro-N-(5-fluoro-4-(6-oxohexahydro-1H-pyrido[1,2-a]pyrazin-2(6H)-yl)pyridin-3-yl)pyrazolo[1,5-a]pyrimidine-3-carboxamide] | +++ (Compounds with a Cisplatin sensitization value of <0.02 μM are marked with “+++.”) |
| Nc1nn2cc(F)cnc2c1C(=O)Nc1cncc(Cl)c1N1CCCC1 [I-N-281, 2-amino-N-(5-chloro-4-(pyrrolidin-1-yl)pyridin-3-yl)-6-fluoropyrazolo[1,5-a]pyrimidine-3-carboxamide] | +++ (Compounds with a Cisplatin sensitization value of <0.02 μM are marked with “+++.”) |
| COCC1CCN(c2ccncc2NC(=O)c2c(N)nn3cc(F)cnc23)CC1 [I-N-282, 2-amino-6-fluoro-N-(4-(4-(methoxymethyl)piperidin-1-yl)pyridin-3-yl)pyrazolo[1,5-a]pyrimidine-3-carboxamide] | +++ (Compounds with a Cisplatin sensitization value of <0.02 μM are marked with “+++.”) |
| Cc1cncn1-c1ccncc1NC(=O)c1c(N)nn2cc(F)cnc12 [I-N-283, 2-amino-6-fluoro-N-(4-(5-methyl-1H-imidazol-1-yl)pyridin-3-yl)pyrazolo[1,5-a]pyrimidine-3-carboxamide] | ++ (Compounds with a Cisplatin sensitization value >0.02 μM but <0.2 μM are marked with “++.”) |
| Nc1nn2cc(F)cnc2c1C(=O)Nc1cncc(Cl)c1N1CCC(O)C1 (stereo not drawn) [I-N-284, 2-amino-N-(5-chloro-4-(3-hydroxypyrrolidin-1-yl)pyridin-3-yl)-6-fluoropyrazolo[1,5-a]pyrimidine-3-carboxamide] | +++ (Compounds with a Cisplatin sensitization value of <0.02 μM are marked with “+++.”) |
| N#C[C@@H]1CCN(c2c(Cl)cncc2NC(=O)c2c(N)nn3cc(F)cnc23)C1 [I-N-285, (R)-2-amino-N-(5-chloro-4-(3-cyanopyrrolidin-1-yl)pyridin-3-yl)-6-fluoropyrazolo[1,5-a]pyrimidine-3-carboxamide] | ++ (Compounds with a Cisplatin sensitization value >0.02 μM but <0.2 μM are marked with “++.”) |
| CN1CC2CN(c3c(Cl)cncc3NC(=O)c3c(N)nn4cc(F)cnc34)CC2C1 (stereo not drawn) [I-N-286, 2-amino-N-(5-chloro-4-(5-methylhexahydropyrrolo[3,4-c]pyrrol-2(1H)-yl)pyridin-3-yl)-6-fluoropyrazolo[1,5-a]pyrimidine-3-carboxamide] | ++ (Compounds with a Cisplatin sensitization value >0.02 μM but <0.2 μM are marked with “++.”) |
| CS(=O)(=O)C1CCN(c2c(Cl)cncc2NC(=O)c2c(N)nn3cc(F)cnc23)C1 (stereo not drawn) [I-N-287, 2-amino-N-(5-chloro-4-(3-(methylsulfonyl)pyrrolidin-1-yl)pyridin-3-yl)-6-fluoropyrazolo[1,5-a]pyrimidine-3-carboxamide] | +++ (Compounds with a Cisplatin sensitization value of <0.02 μM are marked with “+++.”) |
| Nc1nn2cc(F)cnc2c1C(=O)Nc1cncc(F)c1N1CCC(n2ccnc2)CC1 [I-N-288, N-(4-(4-(1H-imidazol-1-yl)piperidin-1-yl)-5-fluoropyridin-3-yl)-2-amino-6-fluoropyrazolo[1,5-a]pyrimidine-3-carboxamide] | +++ (Compounds with a Cisplatin sensitization value of <0.02 μM are marked with “+++.”) |
| CN1CCN(C(=O)C2CCCN(c3c(F)cncc3NC(=O)c3c(N)nn4cc(F)cnc34)C2)CC1 (stereo not drawn) [I-N-289, 2-amino-6-fluoro-N-(5-fluoro-4-(3-(4-methylpiperazine-1-carbonyl)piperidin-1-yl)pyridin-3-yl)pyrazolo[1,5-a]pyrimidine-3-carboxamide] | ++ (Compounds with a Cisplatin sensitization value >0.02 μM but <0.2 μM are marked with “++.”) |
| CN(C)C(=O)C1CCCN(c2ccncc2NC(=O)c2c(N)nn3cc(F)cnc23)C1 (stereo not drawn) [I-N-290, 2-amino-N-(4-(3-(dimethylcarbamoyl)piperidin-1-yl)pyridin-3-yl)-6-fluoropyrazolo[1,5-a]pyrimidine-3-carboxamide] | ++ (Compounds with a Cisplatin sensitization value >0.02 μM but <0.2 μM are marked with “++.”) |
| CN1CC[C@H](Oc2ccncc2NC(=O)c2c(N)nn3cc(F)cnc23)C1 [I-O-1, (S)-2-amino-6-fluoro-N-(4-((1-methylpyrrolidin-3-yl)oxy)pyridin-3-yl)pyrazolo[1,5-a]pyrimidine-3-carboxamide] | +++ (Compounds with a Cisplatin sensitization value of <0.02 μM are marked with “+++.”) |
| CN(C)Cc1ccc(Oc2ccncc2NC(=O)c2c(N)nn3cc(F)cnc23)cn1 [I-O-3, 2-amino-N-(4-((6-((dimethylamino)methyl)pyridin-3-yl)oxy)pyridin-3-yl)-6-fluoropyrazolo[1,5-a]pyrimidine-3-carboxamide] | ++ (Compounds with a Cisplatin sensitization value >0.02 μM but <0.2 μM are marked with “++.”) |
| COc1ccncc1NC(=O)c1c(N)nn2cc(F)cnc12 [I-O-4, 2-amino-6-fluoro-N-(4-methoxypyridin-3-yl)pyrazolo[1,5-a]pyrimidine-3-carboxamide] | ++ (Compounds with a Cisplatin sensitization value >0.02 μM but <0.2 μM are marked with “++.”) |
| Nc1nn2cc(F)cnc2c1C(=O)Nc1cnccc1O[C@H]1CN2CCC1CC2 [I-O-5, (R)-2-amino-6-fluoro-N-(4-(quinuclidin-3-yloxy)pyridin-3-yl)pyrazolo[1,5-a]pyrimidine-3-carboxamide] | +++ (Compounds with a Cisplatin sensitization value of <0.02 μM are marked with “+++.”) |
| Nc1nn2cc(F)cnc2c1C(=O)Nc1cnccc1Oc1cccnc1 [I-O-7, 2-amino-6-fluoro-N-(4-(pyridin-3-yloxy)pyridin-3-yl)pyrazolo[1,5-a]pyrimidine-3-carboxamide] | ++ (Compounds with a Cisplatin sensitization value >0.02 μM but <0.2 μM are marked with “++.”) |
| Nc1nn2cc(F)cnc2c1C(=O)Nc1cnccc1OC1CCC(C(=O)O)CC1 (stereo not drawn) [I-O-8, 4-((3-(2-amino-6-fluoropyrazolo[1,5-a]pyrimidine-3-carboxamido)pyridin-4-yl)oxy)cyclohexanecarboxylic acid] | + (Compounds with a Cisplatin sensitization value >0.2 μM but <5 μM are marked with “+.”) |
| Nc1nn2cc(F)cnc2c1C(=O)Nc1cnccc1O[C@H]1CCCN(C2COC2)C1 [I-O-9, (S)-2-amino-6-fluoro-N-(4-((1-(oxetan-3-yl)piperidin-3-yl)oxy)pyridin-3-yl)pyrazolo[1,5-a]pyrimidine-3-carboxamide] | ++ (Compounds with a Cisplatin sensitization value >0.02 μM but <0.2 μM are marked with “++.”) |
| Nc1nn2cc(F)cnc2c1C(=O)Nc1cnccc1O[C@@H]1CN2CCC1CC2 [I-O-10, (S)-2-amino-6-fluoro-N-(4-(quinuclidin-3-yloxy)pyridin-3-yl)pyrazolo[1,5-a]pyrimidine-3-carboxamide] | +++ (Compounds with a Cisplatin sensitization value of <0.02 μM are marked with “+++.”) |
| Nc1nn2cc(F)cnc2c1C(=O)Nc1cnccc1OC1CCN(C2COC2)CC1 [I-O-11, 2-amino-6-fluoro-N-(4-((1-(oxetan-3-yl)piperidin-4-yl)oxy)pyridin-3-yl)pyrazolo[1,5-a]pyrimidine-3-carboxamide] | +++ (Compounds with a Cisplatin sensitization value of <0.02 μM are marked with “+++.”) |
| CN1CCC(Oc2ccncc2NC(=O)c2c(N)nn3cc(F)cnc23)CC1 [I-O-12, 2-amino-6-fluoro-N-(4-((1-methylpiperidin-4-yl)oxy)pyridin-3-yl)pyrazolo[1,5-a]pyrimidine-3-carboxamide] | +++ (Compounds with a Cisplatin sensitization value of <0.02 μM are marked with “+++.”) |
| COC(=O)[C@H]1CC[C@H](Oc2ccncc2NC(=O)c2c(N)nn3cc(F)cnc23)CC1 [I-O-13, (1r,4r)-methyl 4-((3-(2-amino-6-fluoropyrazolo[1,5-a]pyrimidine-3-carboxamido)pyridin-4-yl)oxy)cyclohexanecarboxylate] | +++ (Compounds with a Cisplatin sensitization value of <0.02 μM are marked with “+++.”) |
| CCOc1ccncc1NC(=O)c1c(N)nn2cc(F)cnc12 [I-O-14, 2-amino-N-(4-ethoxypyridin-3-yl)-6-fluoropyrazolo[1,5-a]pyrimidine-3-carboxamide] | +++ (Compounds with a Cisplatin sensitization value of <0.02 μM are marked with “+++.”) |
| Nc1nn2cc(F)cnc2c1C(=O)Nc1cnccc1O[C@H]1Cc2nccn2C1 [I-O-16, (S)-2-amino-N-(4-((6,7-dihydro-5H-pyrrolo[1,2-a]imidazol-6-yl)oxy)pyridin-3-yl)-6-fluoropyrazolo[1,5-a]pyrimidine-3-carboxamide] | +++ (Compounds with a Cisplatin sensitization value of <0.02 μM are marked with “+++.”) |
